Measurements as given in patent publication US20260285816A1, “Piperazinyl-Modified Quinazolinyl-Aryl Urea Derivative, And Preparation Method And Use Thereof” (Guangxi Normal University, priority 2025, published 2026).

Key:
[1] = tested on: human osteosarcoma 143B; test: 143B tumor-bearing nude mouse model; assay type: in vivo, nude mice; settings: 40 mg/kg oral gavage, every 2 d, 42 d
Experimental: (§1) Experimental method: bladder cancer J82 cells in logarithmic growth phase were trypsinized, collected, and then centrifuged, and resuspended in serum-free DMEM medium after discarding an original medium. Cell density was adjusted, and 0.2 mL cell suspension was subcutaneously inoculated into 5-week-old BALB/c-nu mice (sex-balanced, 18-20 g) under a laminar flow clean bench. Post-inoculation, bleeding at injection sites was monitored. When tumors reached 50-80 mm^3, nude mice with good tumor growth status were randomized into 5 groups (n=6/group) for intraperitoneal administration. Tumor volume and body weight were recorded on Day 0. […] Dosing occurred every 2 d for 42 d. After administering the drug, mice were monitored for diarrhea, anorexia, lethargy, and allergic reactions (e.g., pruritus). The body weight of nude mice was measured every 2 days, and the long and short diameters of the tumors in nude mice were measured by using a vernier caliper, then the recording was finished.
Construction of the human osteosarcoma 143B tumor-bearing nude mouse model followed similar procedures, with identical dosing frequency but administration route changed to oral gavage. Specifically: When tumors reached 60-90 mm^3, mice were randomized into 4 groups (n=6). […]

[2] = tested on: FoxM1, KIF20A, Nrf2, xCT, GPx4, FTH1, HO-1, IRP2, CD71 in bladder cancer T24 cells; test: Western blot of cell cycle- and ferroptosis-related proteins; assay type: cell-based, human
Experimental: Experimental method: bladder cancer T24 cells in logarithmic growth phase were inoculated into 100 mm culture dishes. After 70% confluency was reached, medium was replaced and treated with compound 8-1j or ferroptosis inhibitor Fer-1. Post-co-incubation, cells were trypsinized, collected, and washed with pre-cooled PBS. 0.2 mL of RIPA cell lysis buffer was added to each tube, mixed thoroughly, and transferred to a 1.5 mL centrifuge tube, and lysed on ice with agitation for 30 min. Lysates were centrifuged at 12,000 rpm (4° C., 10 min) to collect supernatants. Supernatants were mixed with 5×SDS-PAGE protein loading buffer, heated at 95° C. for 7 min, and stored at −80° C. SDS-PAGE (sodium dodecyl sulfate-polyacrylamide gel electrophoresis) was conducted at 80 V until entry into separating gel, then at 120 V until bromophenol blue reached the gel bottom. Gels were cut according to molecular weight indicated by Marker, transferred to membranes, blocked, and then immune reaction was performed. Protein bands were visualized by an enhanced chemiluminescence (ECL) detection system. Band densities were analyzed using ImageJ software. Three repeated experiments were conducted.

[3] = tested on: 143B cells; test: Cell cycle analysis (PI staining, flow cytometry), 143B; assay type: cell-based, human
Experimental: (§2) Tumor cells (T24, UM-UC-3, 143B, BxPC-3) in logarithmic growth phase were inoculated into 70 mm culture dishes. After 70% confluency was reached, medium was replaced and treated with: compound 8-1j, ferroptosis inducer Erastin, or cell cycle blocker paclitaxel (PTX) for a specified duration. Post-incubation, cells were trypsinized, collected, centrifuged, and washed 2 times with pre-cooled phosphate-buffered saline (PBS). Pre-cooled 75% ethanol was added dropwise during vortexing for fixation at −20° C. overnight. After centrifugation (10 min), supernatant was discarded. Cells were rewashed with PBS and centrifuged. Following kit instructions (Beyotime, C1052, China), 0.5 mL staining buffer, 25 μL PI (propidium iodide) stain (20×), and 10 μL RNase A (50×) were mixed per sample. Cells were resuspended in PI staining solution and incubated at 37° C. in dark for 30 min (gentle shaking every 10 min). Samples were filtered through 200-mesh filters, transferred into a flow tube, and analyzed via BD FACSVerse flow cytometer. All experiments were conducted in 3 repeats. Compounds 8-2h and 8-2j were evaluated identically.

[4] = tested on: T24 cells; test: Cell cycle analysis (PI staining, flow cytometry), T24; assay type: cell-based, human
Experimental: as §2

[5] = tested on: bladder cancer J82 cells; test: J82 tumor-bearing nude mouse model; assay type: in vivo, BALB/c-nu mice
Experimental: as §1
0.9% normal saline was added thereto to obtain a solution, which was sterilized under UV light for 30 min. Administration volume was 10 mL/kg per mouse. The preparation contained PEG400 and 0.9% normal saline at a 3:1 volume ratio, with 2% (v/v) DMA.

[6] = tested on: BxPC-3 cells; test: Cell cycle analysis (PI staining, flow cytometry), BxPC-3; assay type: cell-based, human
Experimental: as §2

[7] = tested on: human pancreatic cancer BxPC-3; test: BxPC-3 tumor-bearing nude mouse model; assay type: in vivo, nude mice; parameters: Tumor growth control, high dose: dose or concentration left out as unconfirmed
[8] = 20 mg/kg intraperitoneal, every 2 d for 42 d

COc1cc2ncnc(NCc3cccc(NC(=O)Nc4ccc(C(C)(C)C)cc4)c3)c2cc1OCCCCCCN1CCN(CCN2CCOCC2)CC1 [Compound 8-1j, N-(3-(((7-methoxy-6-((6-(4-(2-morpholinoethyl)piperazin-1-yl)hexyl)oxy)quinazolin-4-yl)amino)methyl)phenyl)-N′-(4-tert-butylphenyl)urea]
Tumor inhibition [1]: significantly stronger tumor inhibition than positive control Apat | Ferroptosis-related proteins HO-1, IRP2, and CD71 expression [2]: upregulating | FoxM1, KIF20A, Nrf2, xCT, GPx4, and FTH1 expression ([2]; concentration-dependently): significantly downregulates | Cell cycle arrest phase ([3]; 143B cells (FIG. 46)): arrest cell cycle at G2/M phase | Effect of co-administration with PTX on cell cycle ([3]; 143B, with PTX): Synergistic effects | Effect of co-administration with PTX on cell cycle ([4]; T24, with PTX): Synergistic effects | Cell cycle arrest phase ([4]; T24 cells (FIG. 44)): arrest cell cycle at G2/M phase | Body weight and tolerability observations [5, 8]: Mild weight loss occurs without anorexia, diarrhea, or pruritus | Tumor growth rates vs. vehicle control and equi-dose positive control [5, 8]: significantly lower | Anti-tumor efficacy compared with 9g (A-2) ([5]; at 20 mg/kg intraperitoneal): surpassed that of 9g (A-2)

CCc1cccc(CC)c1NC(=O)Nc1cccc(CNc2ncnc3cc(OC)c(OCCCCCCN4CCC(CN5CCN(c6ccccn6)CC5)CC4)cc23)c1 [Compound 8-2h, N-(3-(((7-methoxy-6-((6-(4-((4-(pyridin-2-yl)piperazin-1-yl)methyl)piperidin-1-yl)hexyl)oxy)quinazolin-4-yl)amino)methyl)phenyl)-N′-(2,6-diethylphenyl)urea]
Cell cycle arrest phase, high concentration ([6]; high concentration (>6 μM)): G2/M arrest | Cell cycle arrest phase, low concentration ([6]; low concentration (e.g., 3 μM)): G0/G1 arrest | Effect of co-administration with PTX on cell cycle ([6]; with PTX): Synergistic effects | Tumor growth control, high dose [7]: controls tumor growth by Day 28 | Tumor after continued administration ([7]; high dose, oral gavage, up to 42 d): significantly shrank | Toxicity observations ([7]; oral gavage, gemcitabine 24 mg/kg, 8-2h 12, 24, 36 mg/kg): no toxicity
